PubChem BioAssay AID2060894 (Molecular Pharmacology Branch, DTP, NCI, 2025)
Where “and” joins values, the source holds several entries; their conditions need not be identical. Identical values can stand only once.

System: K12877-001-R-J1-PDC complex spheroid viability
Assay: Anticancer human tumor K12877-001-R-J1-PDC patient-derived lung adenocarcinoma cell line growth inhibition [RAS]
Details: for viability, T/C: stronger effect = lower value
In short: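 Tumour cells grown as complex spheroids with HUVEC endothelial cells and mesenchymal stem cells, treated with RAS pathway inhibitor combinations. Each agent spans half-log steps from near clinical Cmax, or 10 microM where Cmax is unknown.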

[1] = curve of first compound, second compound 0.000949 µM
[2] = curve of first compound, second compound 0.003 µM
[3] = curve of first compound, second compound 0.00949 µM
[4] = curve of first compound, second compound 0.03 µM
[5] = curve of first compound, second compound 0.0949 µM
[6] = curve of first compound, second compound 0.3 µM
[7] = second compound 0.000949 µM, first compound 0.0316 µM
[8] = second compound 0.000949 µM, first compound 0.1 µM
[9] = second compound 0.000949 µM, first compound 0.316 µM
[10] = second compound 0.000949 µM, first compound 1 µM
[11] = second compound 0.003 µM, first compound 0.0316 µM
[12] = second compound 0.003 µM, first compound 0.1 µM
[13] = second compound 0.003 µM, first compound 0.316 µM
[14] = second compound 0.003 µM, first compound 1 µM
[15] = second compound 0.00949 µM, first compound 0.0316 µM
[16] = second compound 0.00949 µM, first compound 0.1 µM
[17] = second compound 0.00949 µM, first compound 0.316 µM
[18] = second compound 0.00949 µM, first compound 1 µM
[19] = second compound 0.03 µM, first compound 0.0316 µM
[20] = second compound 0.03 µM, first compound 0.1 µM
[21] = second compound 0.03 µM, first compound 0.316 µM
[22] = second compound 0.03 µM, first compound 1 µM
[23] = second compound 0.0949 µM, first compound 0.0316 µM
[24] = second compound 0.0949 µM, first compound 0.1 µM
[25] = second compound 0.0949 µM, first compound 0.316 µM
[26] = second compound 0.0949 µM, first compound 1 µM
[27] = second compound 0.3 µM, first compound 0.0316 µM
[28] = second compound 0.3 µM, first compound 0.1 µM
[29] = second compound 0.3 µM, first compound 0.316 µM
[30] = second compound 0.3 µM, first compound 1 µM
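Also: spheroids exposed to agents for one week before readout.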
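For viability, T/C in this document: tumour cells co-cultured with HUVEC and mesenchymal stem cells in spheroids.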

C=CC(=O)N1CCN(c2nc(OCC3CCCN3C)nc3c(F)c(-c4nc(N)cc(C)c4C(F)(F)F)c(Cl)cc23)C(C)C1 (configuration not stated) + CCn1c(-c2cc(N3CCN(C)CC3)cnc2C(C)OC)c2c3cc(ccc31)-c1csc(n1)CC(NC(=O)C1CC1C)C(=O)N1CCCC(N1)C(=O)OCC(C)(C)C2
IC50 [1]: > 1000 nM | IC50 [2]: > 1000 nM | IC50 [3]: > 1000 nM | IC50 [4]: > 1000 nM | IC50 [5]: > 1000 nM | IC50 [6]: > 1000 nM | viability, T/C (second compound 0.000949 µM, first compound 0.00316 µM): 80.8% | viability, T/C (second compound 0.000949 µM, first compound 0.01 µM): 71.5% | viability, T/C [7]: 78.4% | viability, T/C [8]: 69.2% | viability, T/C [9]: 69.5% | viability, T/C [10]: 68% | viability, T/C (second compound 0.003 µM, first compound 0.00316 µM): 66.2% | viability, T/C (second compound 0.003 µM, first compound 0.01 µM): 66.7% | viability, T/C [11]: 66.4% | viability, T/C [12]: 60.6% | viability, T/C [13]: 62.7% | viability, T/C [14]: 67% | viability, T/C (second compound 0.00949 µM, first compound 0.00316 µM): 69.7% | viability, T/C (second compound 0.00949 µM, first compound 0.01 µM): 62% | viability, T/C [15]: 70.1% | viability, T/C [16]: 76.1% | viability, T/C [17]: 63.6% | viability, T/C [18]: 58.2% | viability, T/C (second compound 0.03 µM, first compound 0.00316 µM): 93.4% | viability, T/C (second compound 0.03 µM, first compound 0.01 µM): 84.5% | viability, T/C [19]: 92.3% | viability, T/C [20]: 81.2% | viability, T/C [21]: 81.2% | viability, T/C [22]: 97.2% | viability, T/C (second compound 0.0949 µM, first compound 0.00316 µM): 116% | viability, T/C (second compound 0.0949 µM, first compound 0.01 µM): 95.8% | viability, T/C [23]: 101% | viability, T/C [24]: 102% | viability, T/C [25]: 97.6% | viability, T/C [26]: 98% | viability, T/C (second compound 0.3 µM, first compound 0.00316 µM): 96.8% | viability, T/C (second compound 0.3 µM, first compound 0.01 µM): 93.4% | viability, T/C [27]: 90.7% | viability, T/C [28]: 88.6% | viability, T/C [29]: 84.3% | viability, T/C [30]: 91.1%

CC(C)NCC(C(=O)N1CCN(c2ncnc3c2C(C)CC3O)CC1)c1ccc(Cl)cc1 (configuration not stated) + CCn1c(-c2cccnc2C(C)OC)c2c3cc(ccc31)N1CCOC(CC(NC(=O)C(C(C)C)N(C)C(=O)C3(F)CCN(C(=O)C#CC(C)(C)N(C)C)CC3)C(=O)N3CCCC(N3)C(=O)OCC(C)(C)C2)C1
IC50 [1]: 1260 nM | IC50 [2]: 1280 nM | IC50 [3]: 1430 nM | IC50 [4]: 956 nM | IC50 [5]: 488 nM | IC50 [6]: 170 nM | viability, T/C [7]: 88.5% | viability, T/C [8]: 76.6% | viability, T/C [9]: 80.5% | viability, T/C [10]: 55.5% | viability, T/C (second compound 0.000949 µM, first compound 3.16 µM): 26.7% | viability, T/C (second compound 0.000949 µM, first compound 10 µM): 18.3% | viability, T/C [11]: 80.6% | viability, T/C [12]: 88% | viability, T/C [13]: 67.1% | viability, T/C [14]: 60.6% | viability, T/C (second compound 0.003 µM, first compound 3.16 µM): 26.5% | viability, T/C (second compound 0.003 µM, first compound 10 µM): 19.6% | viability, T/C [15]: 78.5% | viability, T/C [16]: 68.5% | viability, T/C [17]: 82.8% | viability, T/C [18]: 58.7% | viability, T/C (second compound 0.00949 µM, first compound 3.16 µM): 27.9% | viability, T/C (second compound 0.00949 µM, first compound 10 µM): 16% | viability, T/C [19]: 75.7% | viability, T/C [20]: 68.9% | viability, T/C [21]: 81.6% | viability, T/C [22]: 49% | viability, T/C (second compound 0.03 µM, first compound 3.16 µM): 26.8% | viability, T/C (second compound 0.03 µM, first compound 10 µM): 15.9% | viability, T/C [23]: 72.7% | viability, T/C [24]: 73.5% | viability, T/C [25]: 51.8% | viability, T/C [26]: 41.5% | viability, T/C (second compound 0.0949 µM, first compound 3.16 µM): 23.1% | viability, T/C (second compound 0.0949 µM, first compound 10 µM): 12.1% | viability, T/C [27]: 57.8% | viability, T/C [28]: 52.8% | viability, T/C [29]: 46.3% | viability, T/C [30]: 23.5% | viability, T/C (second compound 0.3 µM, first compound 3.16 µM): 19% | viability, T/C (second compound 0.3 µM, first compound 10 µM): 10.6%

O=C(c1ccc(F)c(F)c1Nc1ccc(I)cc1F)N1CC(O)([C@@H]2CCCCN2)C1
viability, T/C (compound 0.00316 µM): 109% [middle of 4 runs] | viability, T/C (compound 0.01 µM): 93.5% [middle of 4 runs] | viability, T/C (compound 0.0316 µM): 94.9% [middle of 4 runs] | viability, T/C (compound 0.1 µM): 81.3% [middle of 4 runs] | viability, T/C (compound 0.316 µM): 81.6% [middle of 4 runs] | IC50 (curve of compound): > 1000 nM and 496 nM

O=C(c1ccc(F)c(F)c1Nc1ccc(I)cc1F)N1CC(O)([C@@H]2CCCCN2)C1 + C=CC(=O)N1CCN(c2nc(OCC3CCCN3C)nc3c(F)c(-c4nc(N)cc(C)c4C(F)(F)F)c(Cl)cc23)C(C)C1
IC50 (curve of first compound, second compound 0.00316 µM): > 1000 nM | IC50 (curve of first compound, second compound 0.01 µM): > 1000 nM | IC50 (curve of first compound, second compound 0.0316 µM): > 1000 nM | IC50 (curve of first compound, second compound 0.1 µM): > 1000 nM | IC50 (curve of first compound, second compound 0.316 µM): > 1000 nM | IC50 (curve of first compound, second compound 1 µM): > 1000 nM | viability, T/C (second compound 0.00316 µM, first compound 0.00316 µM): 104% | viability, T/C (second compound 0.00316 µM, first compound 0.01 µM): 103% | viability, T/C (second compound 0.00316 µM, first compound 0.0316 µM): 89.5% | viability, T/C (second compound 0.00316 µM, first compound 0.1 µM): 91.7% | viability, T/C (second compound 0.00316 µM, first compound 0.316 µM): 72.2% | viability, T/C (second compound 0.00316 µM, first compound 1 µM): 54.5% | viability, T/C (second compound 0.01 µM, first compound 0.00316 µM): 94.5% | viability, T/C (second compound 0.01 µM, first compound 0.01 µM): 95% | viability, T/C (second compound 0.01 µM, first compound 0.0316 µM): 78.9% | viability, T/C (second compound 0.01 µM, first compound 0.1 µM): 90.7% | viability, T/C (second compound 0.01 µM, first compound 0.316 µM): 68.1% | viability, T/C (second compound 0.01 µM, first compound 1 µM): 58.3% | viability, T/C (second compound 0.0316 µM, first compound 0.00316 µM): 93% | viability, T/C (second compound 0.0316 µM, first compound 0.01 µM): 85.2% | viability, T/C (second compound 0.0316 µM, first compound 0.0316 µM): 77.5% | viability, T/C (second compound 0.0316 µM, first compound 0.1 µM): 87.6% | viability, T/C (second compound 0.0316 µM, first compound 0.316 µM): 71.1% | viability, T/C (second compound 0.0316 µM, first compound 1 µM): 66.4% | viability, T/C (second compound 0.1 µM, first compound 0.00316 µM): 85.2% | viability, T/C (second compound 0.1 µM, first compound 0.01 µM): 89.3% | viability, T/C (second compound 0.1 µM, first compound 0.0316 µM): 83.7% | viability, T/C (second compound 0.1 µM, first compound 0.1 µM): 82.2% | viability, T/C (second compound 0.1 µM, first compound 0.316 µM): 72.4% | viability, T/C (second compound 0.1 µM, first compound 1 µM): 55.4% | viability, T/C (second compound 0.316 µM, first compound 0.00316 µM): 85.7% | viability, T/C (second compound 0.316 µM, first compound 0.01 µM): 83.3% | viability, T/C (second compound 0.316 µM, first compound 0.0316 µM): 84.7% | viability, T/C (second compound 0.316 µM, first compound 0.1 µM): 89.4% | viability, T/C (second compound 0.316 µM, first compound 0.316 µM): 72.4% | viability, T/C (second compound 0.316 µM, first compound 1 µM): 59% | viability, T/C (second compound 1 µM, first compound 0.00316 µM): 79.5% | viability, T/C (second compound 1 µM, first compound 0.01 µM): 79.3% | viability, T/C (second compound 1 µM, first compound 0.0316 µM): 78.1% | viability, T/C (second compound 1 µM, first compound 0.1 µM): 103% | viability, T/C (second compound 1 µM, first compound 0.316 µM): 75.3% | viability, T/C (second compound 1 µM, first compound 1 µM): 57.2%
